How the values were obtained:
EG7-OVA tumours = test: Adoptive cellular immunotherapy experiments; type: in vivo, mouse; conditions: i.v.
Method: Mice were lymphodepleted with sub-lethal irradiation before receivening intravenous injection of OT-I CD8^+ T-lymphocytes. Error bars denote s.e.m. *p<0.05, ns=non-significant.
Error bars denote s.e.m. *p<0.05, ns=non-significant.
For adoptive cell therapy experiments, OT-I CD8^+ T-lymphocytes were activated with 1000 nM SIINFEKL peptide in the presence of IL-2 and vehicle or 300 μM S-2HG-octyl ester. After 48 h CD8^+ T-cells were purified by negative selection and cultured for a further 7 days in the presence of IL-2 and vehicle or 300 μM S-2HG-octyl ester. OT-I cells were transferred intravenously into tumour-bearing C57BL/6J lymphodepleted or lymphoreplete mice with 9-12 day established EG7-OVA tumours.

OT-I CD8^+ T-lymphocytes [1] = test: Homeostatic proliferation after co-transfer into sub-lethally irradiated hosts; type: in vivo, mouse
Method: CD45.1.1 or CD45.1.2 OT-I CD8^+ T-lymphocytes were activated with 1000 nM SIINFEKL peptide and cultured with or without 300 μM S-2HG-octyl ester for 9 days. Cells from each group were mixed 1:1 and labelled with CFSE prior to transfer into sub-lethally irradiated CD45.2.2 mice. 7 days later, mice were sacrificed and the presence of CD451.1 and CD45.1.2 CD8^+ T-lymphocytes was enumerated in spleen by flow cytometry. Representative flow cytometry plots are shown for each pool before and after adoptive transfer. Flow cytometry plots show viable CD8^+ cells.
Total splenocytes from OT-I CD45.1/CD45.1 and OT-I CD45.1/CD45.2 mice were activated with 1000 nM SIINFEKL peptide in the presence of IL-2 and vehicle or 300 μM S-2HG-octyl ester. After 48 h CD8^+ T-cells were purified by negative selection and cultured for a further 7 days in the presence of IL-2 and vehicle or 300 μM S-2HG-octyl ester. Vehicle and S-2HG-treated cells were then mixed 1:1 and labelled with CFSE, followed by intravenous injection into sub-lethally irradiated CD45.2/CD45.2 hosts. 7 days later, spleens were harvested and analysed by flow cytometry. Absolute numbers of cells were determined with the use of counting beads (CountBright, Life Technologies)

OT-I CD8^+ T-lymphocytes [2] = test: Recall experiments with co-transferred cells; type: in vivo, mouse; conditions: cells pre-treated with 300 μM S-2HG-octyl ester; spleen, lymphnodes, liver, day 37 post transfer
Method: CD45.1.1 or CD45.1.2 OT-I CD8^+ T-lymphocytes were activated with 1000 nM SIINFEKL peptide and cultured with or without 300 μM S-2HG-octyl ester for 9 days. Cells from each group were mixed 1:1 prior to transfer into CD45.2.2 mice. 30 days later, these recipient mice were vaccinated with SIINFEKL-loaded dendritic cells to induce recall and the presence of CD451.1 and CD45.1.2 CD8^+ T-lymphocytes was enumerated in spleen, lymphnodes and liver by flow cytometry 7 days later.

CD8^+ T-lymphocytes [3] = test: qRT-PCR of differentiation, memory and pluripotency associated genes; type: cell-based, mouse; conditions: 0.5 mM, 1 day or 7 days, with IL2
Method: FIGS. 8E, 8F and 8G show expression of II2(8E), Ifng (8F), and Eomes (8G) mRNA in CD8^+ T-lymphocytes activated for 48 h with αCD3+αCD28 antibodies and then expanded for a further 2 days in the presence of IL-2. Cells were then treated for either 24 h or 7 days with or without 0.5 mM S-2HG-octyl ester or R-2HG-octyl ester. n≥4 mice per group.
Activated CD8^+ T-lymphocytes were treated with 0.5 mM of either S-2HG-octyl ester or R-2HG-octyl ester for 1 day or 7 days in the presence of IL2. The induction seen with R-2HG-octyl ester is weaker than with S-2HG-octyl ester. Each dot represents an individual donor mouse, n=4 mice. error bars denote the s.d.
RNA was isolated using the RNeasy kit (Qiagen). 1 μg of RNA was used for cDNA synthesis with the First-Strand Synthesis kit (Invitrogen). All samples were run in technical triplicates using a StepOnePlus system (Applied Biosystems) with SYBR green.

CD8^+ T-lymphocytes [4] = test: Flow cytometric characterisation of phenotypic markers; type: cell-based, mouse; conditions: 7 days
Source text: Gated on live CD8^+ cells. Each dot represents an individual mouse.
Associated statistics are shown and each pair of dots represents an individual mouse. Gated on live, CD8^+GFP^+ cells.
Cells were stained and acquired on a Fortessa (BD Biosciences). The following fluorophores and fluorophore-conjugated antibodies were used: anti-CD62L (Biolegend, MEL-14), anti-CD44 (Biolegend, IM7), anti-CD8a (Biolegend, 53-6.7), anti-CD45.1 (Biolegend, A20), anti-CD45.2 (Biolegend, 104), anti-CD127 (Biolegend, A7R34), anti-KLRG1 (Biolegend, 2F1/KLRG1), anti-CD19 (Biolegend, 6D5), anti-Bcl-2 (Biolegend, BCL/10C4), Eomes (eBioscience, Danlimag), PD-1 (Biolegend, 29F.1A12), […], H-2Kb/SIINFEKL Pentamer-PE (Proimmune, F093-2A), CFSE (Life Technologies), LIVE/DEAD Violet (Life Technologies), PI-AnnexinV (Biolegend, 640928), anti-Bcl-xl-PE (Cell Signalling Technologies, 54H6). For staining of nuclear-located marker Eomes, the Transcription Factor Staining Buffer Set (eBioscience) was used, according to the manufacturer's instructions. For staining of intracellular cytokines, OT-I cells were re-stimulated with SIINFEKL peptide for 4 h with GolgiStop solution (BD). For ^1H-NMR experiments, CD8^+ T-lymphocytes were sorted from total splenocytes by immunostaining with anti-mouse CD8-AF647 (Biolegend) on a MoFlo (Beckman Coulter). Cells were then activated and cultured as described above. For staining of human T cells, CD8^+ T cells were incubated at 37 C for 30 minutes in the presence of anti-CCR7 antibody (eBioscience 12-1979-41), followed by staining with anti-CD45RO antibody (Biolegend, UCHL1).

OT-I CD8^+ T-lymphocytes [5] = test: In vivo persistence experiments; set-up: species or system mouse
Method: Flow cytomotery plots are gated on live cells.
Total splenocytes from OT-I CD45.1^+ mice were activated with 1000 nM SIINFEKL peptide in the presence of IL-2 and vehicle or 300 μM S-2HG-octyl ester. After 48 h CD8^+ T-cells were purified by negative selection and cultured for 7 days in the presence of IL-2 and vehicle or 300 μM S-2HG-octyl ester. 1 million CD45.1^+CD8^+ cells were then injected intravenously into C57BL/6J wild type CD45.2.2 host mice. 30 days later, host mice were sacrificed to assess the persistence of transferred cells in the spleen. Absolute numbers of cells were determined with the use of counting beads (CountBright, Life Technologies).

CD8^+ T-lymphocytes [6] = test: Flow cytometry of CD44 and CD62L surface expression; type: cell-based, mouse; conditions: 0.5 mM, with IL-2; antigen specific (OT-I) and polyclonal CD8+ T-lymphocytes
Source text: Data are representative of n=4 individual mice.
Data are representative of 3 mice per genotype.
Data are representative of 2 mice per genotype.
Data are representative of n=3 individual mice.
Cells were stained and acquired on a Fortessa (BD Biosciences). […] For staining of nuclear-located marker Eomes, the Transcription Factor Staining Buffer Set (eBioscience) was used, according to the manufacturer's instructions. For staining of intracellular cytokines, OT-I cells were re-stimulated with […] peptide for 4 h with GolgiStop solution (BD). For ^1H-NMR experiments, CD8^+ T-lymphocytes were sorted from total splenocytes by immunostaining with anti-mouse CD8-AF647 (Biolegend) on a MoFlo (Beckman Coulter). Cells were then activated and cultured as described above.

[7] = test system: OT-I CD8^+CD45.1^+ T-lymphocytes; test: In vivo memory recall experiment (adoptive transfer, vaccination); set-up: species or system mouse; conditions: 0.5 mM, 7 days with IL-2 (FIGS. 13, 16, 17)
Method: FIGS. 13B and 13C show representative flow cytometry plots of (B) CD8^+CD45.1^+ (C) or Kb/SIINFEKL Pentamer^+CD45.1^+ T-lymphocytes, in the spleens of vaccinated litter mate CD45.2 mice, 37 days after adoptive transfer of SIINFEKL-activated OT-I CD8^+CD45.1^+ T-lymphocytes, expanded with 0.5 mM S-2HG-octyl ester, 0.5 mM R-2HG-octyl ester or vehicle in the presence of IL-2 for 7 days. FIGS. 13D-F show (13D) the number of recovered CD45.1^+CD8^+ T-lymphocytes per spleen and (13E) % CD45.1^+ cells of the total CD8^+ population in each spleen or (13F) number of recovered Kb/SIINFEKL Pentamer^+CD45.1^+ T-lymphocytes per spleen 7 days after vaccination (37 days after the CD8+ T-cells were transferred into the mice). n=6 mice per group and error bars denote the s.e.m.
Total splenocytes from OT-1 CD45.1^+ mice were activated with 1000 nM SIINFEKL peptide in the presence of IL-2 and vehicle, 0.5 mM S-2HG-octyl ester or 0.5 mM R-2HG-octyl ester for 7 days. 1 million CD45^+CD8^+ cells were then injected intravenously into C57/B6 wild type CD45.2^+ host mice. 30 days later, host mice were vaccinated i.p. with SIINFEKL-loaded dendritic cells. 7 days later, spleens were harvested from host mice and the presence of CD45.1^+CD8^+ and Kb/SIINFEKL Pentamer+cells was determined by flow cytometry. Absolute numbers of cells were determined with the use of counting beads (CountBright, Life Technologies). Dendritic cells were prepared from bone marrow extracted from wild type C57/B6 mice. Bone marrow derived cells were cultured in non-TC treated petri dishes in RPMI-1640 medium containing 2 mM glutamine, 10% FBS, 25 mM HEPES, pH 7.2, 1% penicillin-streptomycin, 55 μM […] supplemented 20 ng/ml mGM-CSF (R&D Systems). After 8 days of culture, dendritic cells were activated with 1 μg/ml LPS (Sigma) for 24 h. The maturation of dendritic cells was confirmed by flow cytometry using the following markers: MHC class II-APC, CD11b-AF488, CD11c-AF488 and CD86-PE/Cy7 (Biolegend). Mature dendritic cells were then loaded with 2 μM SIINFEKL peptide at 37° C. for 1 hour. After peptide loading, dendritic cells were detached with 3 mM EDTA in PBS for 5-10 min at 37° C. and washed with PBS. For vaccination, 1 million peptide-loaded dendritic cells were injected i.p. per mouse in 100 μl PBS.

[8] = 500 μM S-2HG-octyl ester, HIF-1α-independent

Structure (SMILES) | control of tumour growth in lymphodepleted tumour-bearing mice (EG7-OVA tumours; 0.7×10^6 OT-I cells cultured with S-2HG-octyl ester, 12 day tumours) | control of tumour growth in lymphoreplete tumour-bearing mice (EG7-OVA tumours; 1.0×10^6 OT-I cells cultured with S-2HG-octyl ester, 9 day tumours) | homeostatic proliferation of transferred cells (OT-I CD8^+ T-lymphocytes [1]; cells pre-treated with 300 μM S-2HG-octyl ester 9 days, 7 days after transfer, spleen) | transferred cells dividing >5 times in vivo (OT-I CD8^+ T-lymphocytes [1]; cells pre-treated with 300 μM S-2HG-octyl ester, CFSE, day 7) | recall response to vaccination with SIINFEKL-loaded dendritic cells (OT-I CD8^+ T-lymphocytes [2]) | expression of pluripotency associated genes (Oct3/4, Sox2, Nanog, Klf4) (CD8^+ T-lymphocytes [3]) | proportion of KLRG1^High cells (CD8^+ T-lymphocytes [4]; 300 μM S-2HG-octyl ester, 21% oxygen, empty or L2hgdh-FLAG vector) | PD-1 expression (CD8^+ T-lymphocytes [4]; 500 μM S-2HG-octyl ester) | 41BB expression (CD8^+ T-lymphocytes [4]; [8]) | CD44 expression (CD8^+ T-lymphocytes [4]; [8]) | CD127 expression (CD8^+ T-lymphocytes [4]; [8]) | Eomes expression (flow cytometry) (CD8^+ T-lymphocytes [4]; [8]) | persistence of adoptively transferred cells (OT-I CD8^+ T-lymphocytes [5]; cells pre-treated with 300 μM S-2HG-octyl ester, spleen, 30 days after transfer) | Bcl-2 level of recovered cells relative to naïve cells (OT-I CD8^+ T-lymphocytes [5]; day 30 after transfer) | CD44 level of recovered cells relative to naïve cells (OT-I CD8^+ T-lymphocytes [5]; day 30 after transfer) | CD127 level of recovered cells relative to naïve cells (OT-I CD8^+ T-lymphocytes [5]; day 30 after transfer) | formation of a CD62L^high CD44^high population (CD8^+ T-lymphocytes [6]) | formation of memory cells after in vitro treatment of CD8+ T-cells [7] | formation of memory cells after in vitro treatment of CD8+ T-cells ([7]; listed as alpha ketoglutarate)
O=C(O)CC[C@H](O)C(=O)O [S-2HG, S-2-hydroxyglutarate] | more proficient at controlling tumour growth | more proficient at controlling tumour growth | greater homeostatic proliferation | more cells dividing >5 times | superior recall response | induces the expression | decreased | less | more | more | more | more | dramatically enhanced persistence | elevated | elevated | elevated | – | – | –
COC(=O)CCC(=O)OC [dimethylsuccinate] | – | – | – | – | – | – | – | – | – | – | – | – | – | – | – | – | induce the formation | induces the formation | –
CCCCCCCCOC(=O)C(=O)CCC(=O)O [α-ketoglutarate octyl ester, reference compound] | – | – | – | – | – | – | – | – | – | – | – | – | – | – | – | – | not observed | does not induce the formation | does not provide good activity

From US20190316085A1, “Methods Of T-Lymphocyte Expansion” (Cambridge Enterprise Limited, priority 2015, published 2019)
